Source: patent US11679107B2 (Eisai R&D Management Co., Ltd., priority 2018, dated 2023)
Where two headings read alike, the source gives them in different places.

Key:
[1] = biological target: T1, SF3b complexes (Homo sapiens, UniProt O75533+Q7RTV0); experiment: Scintillation proximity assay (SPA) with [3H]-labelled pladienolide probe; type: binding; details: SF3B1 (WT); geometric mean; read-out: SPA-ATS GMean IC50 (nM) SF3B1 (WT)
T1 construct: endogenous in cells; host or cells: Nuclear extracts; A HeLa S3 extract preparation is described for the in vitro splicing assay
Method in brief: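 SF3b complexes captured from nuclear extracts on anti-SF3B1 antibody SPA beads; test compounds pre-incubated 30 min before 2.5 nM [3H]-pladienolide probe added, then 30 min incubation. Bound probe read by scintillation; values from non-linear regression of concentration–response curves.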

[2] = system: Ad2 variant pre-mRNAs spliced in HeLa S3 nuclear extracts; experiment: In vitro splicing assay (IVS), RT-qPCR of spliced product; type: biochemical; details: geometric mean
Method in brief: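 Read-out is one-step TaqMan RT-qPCR of spliced Ad2 mRNA with Ftz as reference, normalized to DMSO and fit by non-linear regression. Reactions held HeLa S3 nuclear extract, 2 ng Ad2-derived pre-mRNA and test compound, with 15 min preincubation. Splicing was started with ATP-containing activation buffer and run 90 min at 30 °C.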

[3] = system: NCI-H1568 cells (high MCL1); experiment: Cell proliferation and viability, CellTiter-Glo, 72 hours; type: cell-based; details: for GI50: geometric mean; for CTGlo-ATS Mean MinResponse % 72 h NCIH1568.1: −100% cidal, 0% static, 100% maximal growth
Method in brief: (§1)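 ATP luminescence (CellTiter-Glo) was measured 72 h after treatment with compound at 10 μM–100 pM (11 points, half-log) in 0.1% DMSO. The Panc line was grown in RPMI-1640 plus insulin and 15% FBS, the other in 10% FBS. Data were normalised to time zero and vehicle controls, where −100% is cidal and 0% static.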

[4] = system: Panc 05.04 cells (SF3b K700E mutant); experiment: as above; type: cell-based; details: for CTGlo-ATS Mean MinResponse % 72 h PANC0504.1: −100% cidal, 0% static, 100% maximal growth; for GI50: geometric mean
Method in brief: as §1

[5] = Ad2.1 pre-mRNA substrate, read-out: qPCR-IVS-ATS GMean IC50 (nM) Ad2.1
[6] = Ad2.2 pre-mRNA substrate, read-out: qPCR-IVS-ATS GMean IC50 (nM) Ad2.2
[7] = NCI-H1568, read-out: CTGlo-ATS GMean GI50 (nM) 72 h NCIH1568.1, NCIH1568.1 cells, 72 h
[8] = Panc 05.04, read-out: CTGlo-ATS GMean GI50 (nM) 72 h PANC0504.1, PANC0504.1 cells, 72 h
[9] = NCI-H1568, 72 h, read-out: CTGlo-ATS GMean GI50 (nM) 72 h NCIH1568.1, NCIH1568.1 cells, 72 h
[10] = Panc 05.04, 72 h, read-out: CTGlo-ATS GMean GI50 (nM) 72 h PANC0504.1, PANC0504.1 cells, 72 h

Structure (SMILES)	IC50 [1]	IC50 [2, 5]	IC50 [2, 6]	GI50 [3, 7]	CTGlo-ATS Mean MinResponse % 72 h NCIH1568.1 ([3]; NCIH1568.1 cells, 72 h)	CTGlo-ATS Mean MinResponse % 72 h PANC0504.1 ([4]; PANC0504.1 cells, 72 h)	GI50 [4, 8]	GI50 [3, 9]	GI50 [4, 10]
C/C(=C\c1cc(F)cc(N2CCCC2=O)c1)[C@H]1OC(=O)C[C@H](O)CC[C@H](C)[C@@H](OC(=O)N2CCN(C)CC2)/C=C/[C@@H]1C [Compound 42]	2.92 nM	330 nM	12.6 nM	6.13 nM	−63.030%	−86.319%	4.76 nM		
C/C(=C\c1cc(F)cc(N2CCC[C@@H]2C)c1)[C@H]1OC(=O)C[C@H](O)CC[C@H](C)[C@@H](OC(=O)N2CCN(C)CC2)/C=C/[C@@H]1C [Compound 43]	12 nM	> 25000 nM	139 nM		−36.254%	−88.777%		89.1 nM	57.5 nM
C/C(=C\c1cc(F)cc(N2CCC[C@@H]2CO)c1)[C@H]1OC(=O)C[C@H](O)CC[C@H](C)[C@@H](OC(=O)N2CCN(C)CC2)/C=C/[C@@H]1C [Compound 44]	8.26 nM	12800 nM	86.6 nM		−14.871%	−92.314%		67.2 nM	41.5 nM
CN[C@@H]1CCN(c2cc(F)cc(/C=C(\C)[C@H]3OC(=O)C[C@H](O)CC[C@H](C)[C@@H](OC(=O)N4CCN(C)CC4)/C=C/[C@@H]3C)c2)C1 [Compound 45]	15.9 nM	36.3 nM	18.3 nM	18.9 nM	−98.435%	−92.006%	35.7 nM		
C/C(=C\c1cncc(Cl)c1)[C@H]1OC(=O)C[C@H](O)CC[C@H](C)[C@@H](OC(=O)N2CCN(C)CC2)/C=C/[C@@H]1C [Compound 46]	12.2 nM	> 25000 nM	114 nM	78.4 nM	−10.684%	0.031%	40 nM		
C/C(=C\c1cc(Cl)cc(Cl)c1)[C@H]1OC(=O)C[C@H](O)CC[C@H](C)[C@@H](OC(=O)N2CCN(C)CC2)/C=C/[C@@H]1C [Compound 48]	11.3 nM	> 25000 nM	188 nM	121 nM	−38.837%	−89.415%	95.2 nM		
C/C(=C\c1cccc(N2CCCS2(=O)=O)c1)[C@H]1OC(=O)C[C@H](O)CC[C@H](C)[C@@H](OC(=O)N2CCN(C)CC2)/C=C/[C@@H]1C [Compound 49]	3.04 nM	16300 nM	28.3 nM		−35.275%	−93.022%		11.7 nM	9.02 nM
C/C(=C\c1ccc2c(C)nn(C)c2c1)[C@H]1OC(=O)C[C@H](O)CC[C@H](C)[C@@H](OC(=O)N2CCN(C)CC2)/C=C/[C@@H]1C [Compound 50]	1.46 nM	17900 nM	60.2 nM	43.6 nM	−65.255%	−82.642%	28.3 nM		
C/C(=C\c1cc(F)cc(N2CCS(=O)(=O)CC2)c1)[C@H]1OC(=O)C[C@H](O)CC[C@H](C)[C@@H](OC(=O)N(C)C)/C=C/[C@@H]1C [Compound 51]	19.7 nM	> 25000 nM	88.1 nM	112 nM	−31.962%	−78.388%	80.9 nM		
C/C(=C\c1cc(F)cc(N2CCS(=O)(=O)CC2)c1)[C@H]1OC(=O)C[C@H](O)CC[C@H](C)[C@@H](OC(=O)N2CCN(C)CC2)/C=C/[C@@H]1C [Compound 52]	8.3 nM	39.6 nM	45.4 nM		−63.079%	−76.609%		23.3 nM	13.6 nM
C/C(=C\c1cc(F)cc(N2CCN(CCO)CC2)c1)[C@H]1OC(=O)C[C@H](O)CC[C@H](C)[C@@H](OC(=O)N2CCOCC2)/C=C/[C@@H]1C [Compound 53]	14.1 nM	1910 nM	30.5 nM	81.8 nM	−59.250%	−92.947%	81.1 nM		
